Consider 13 molecules from ChEMBL document CHEMBL1201862, “PubChem BioAssay data set” (2004).

Each structure is given as a SMILES string.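 Where inhibition never reached the appropriate level, the endpoint shown equals the highest concentration tested. Otherwise, values were interpolated linearly from a five-concentration, 48-hour dose response in 96-well plates. GI50: concentration for 50% inhibition of growth.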 Activity calls are given as the source filed them. Rule as the data show it: active = GI50 up to about 1.1 µM and inactive = higher.

Test in all cases: NCI anticancer screen, dose series, 48 h
Assay [1] relates to OVCAR-8.
For assay [2], the system named is DU-145.
Assay [3] has as its system NCI-H23.
Assay [4] concerns SF-295.
Assay [5] concerns SK-MEL-28.
Assay [6] deals with HT-29.
Assay [7] concerns HCT-15.
Assay [8] has as its system NCI-H226.
Assay [9] relates to Malme-3M.
Assay [10] relates to CAKI-1.
Assay [11] deals with SNB-19.
The subject of assay [12] is Hs-578T.
Assay [13] has as its system NCI-H460.
In assay [14] the test system is OVCAR-5.
Assay [15] has as its system UACC-62.
The subject of assay [16] is EKVX.
Assay [17] concerns OVCAR-4.
For assay [18], the system named is SR.

Turning to `CC(C)c1cc(CN(C)C)c(O)c(C(C)(C)C)c1`, the GI50 in assay [1] is 30.3 µM (inactive); in assay [2], 36.4 µM (inactive); in assay [3] it was 34.7 µM (inactive); in assay [4] it was 19 µM (inactive); in assay [5], 28.1 µM (inactive); in [6], 36.2 µM (inactive). Besides, the GI50 is 23.7 µM in assay [7]; 21.5 µM (inactive) in [8]; 22.2 µM (inactive) in assay [9]; 23.1 µM (inactive) in assay [10]; 23.6 µM (inactive) in assay [11]; 22.6 µM (inactive) in assay [12]. Also, the GI50 is 17.3 µM (inactive) in assay [13]; > 100 µM (inactive) in assay [14]; 54.1 µM (inactive) in assay [15]; 28.7 µM (inactive) in [16]; 28.8 µM (inactive) in [17].
For `CCSc1s/c(=N/c2ccc(/N=c3\sc(C)c(SC)s3)cc2)sc1-c1ccc(C)cc1`, the GI50 in assay [18], in assay [1], in [2], in [3], in assay [4] and in [5] was > 100 µM (inactive) each time. For the same molecule, the GI50 is > 100 µM (inactive) in assay [6]; above 100 µM in [7]; > 100 µM (inactive) in [9]; > 100 µM (inactive) in assay [10]; > 100 µM (inactive) in assay [11]; > 100 µM (inactive) in assay [12]. Also, the GI50 in assay [13], in assay [14], in [15], in assay [16] and in assay [17] was > 100 µM (inactive) each time.
For `C[C@@H](O)C(=O)N1[C@@H]2CC3CC[C@]2(CS1(=O)=O)C3(C)C`, the GI50 in assay [18] is 18 µM (inactive); in [1] it was > 100 µM (inactive); in assay [2], 88.1 µM (inactive); in assay [3], 62.2 µM (inactive); in assay [4] it was > 100 µM (inactive); in assay [5], 76.2 µM (inactive). The GI50 was > 100 µM (inactive) in [6]; 56.6 µM in [7]; 23.2 µM (inactive) in assay [8]; > 100 µM (inactive) in [10]; 65.8 µM (inactive) in assay [11]; 85.9 µM (inactive) in [13]. Also, the GI50 in [14] is > 100 µM (inactive); in [15], > 100 µM (inactive); in assay [16] it was 89.7 µM (inactive); in [17] it was 85.9 µM (inactive).
For `O=CN1CCN(C(=O)c2cc(Cl)cc(Cl)c2)C1=S`, the GI50 was 19.1 µM (inactive) in assay [1]; 16.8 µM (inactive) in assay [2]; 17.2 µM (inactive) in assay [3]; 17.7 µM (inactive) in [4]; 18.4 µM (inactive) in [5]; 24.3 µM (inactive) in assay [6]. Besides, the GI50 in [7] was 17 µM; in assay [8], 14.7 µM (inactive); in assay [9], 3.12 µM (inactive); in assay [10] it was 13.3 µM (inactive); in [11], 20.5 µM (inactive); in [12] it was 21 µM (inactive). Besides, the GI50 was 22.5 µM (inactive) in [13]; 21.9 µM (inactive) in assay [14]; 15.8 µM (inactive) in [15]; 17.9 µM (inactive) in [16]; 17.1 µM (inactive) in assay [17].
On to `O=C(O)CSC(NC(=O)C(C(F)(F)F)C(F)(F)F)(C(F)(F)F)C(F)(F)F`, for which the GI50 in assay [18] is > 100 µM (inactive); in assay [1], 23.2 µM (inactive); in [3], > 100 µM (inactive); in assay [5], > 100 µM (inactive); in [6], > 100 µM (inactive); in assay [7], above 100 µM. Further, the GI50 in assay [10] is 1.38 µM (inactive); in assay [11] it was > 100 µM (inactive); in [12], > 100 µM (inactive); in assay [14], > 100 µM (inactive); in assay [16] it was > 100 µM (inactive).
For the molecule `CN(C)C1(N(C)C)Oc2c(c(=O)n(C)c(=O)n2C)C(c2ccccc2Br)C1(F)F` (stereo unspecified), the GI50 in [2] was > 100 µM (inactive); in assay [3], > 100 µM (inactive); in [4] it was > 100 µM (inactive); in [5], > 100 µM (inactive); in assay [7] it was above 100 µM; in assay [8], > 100 µM (inactive). The GI50 in [10], in assay [11], in assay [13], in [14], in [15] and in assay [16] was > 100 µM (inactive) each time. The GI50 in assay [17] is > 100 µM (inactive).
Regarding `CS(=O)(=O)OCCCSCCSCCCOS(C)(=O)=O`, the GI50 in assay [18], in assay [1], in assay [2], in assay [3], in assay [4] and in assay [5] was > 100 µM (inactive) each time. Besides, the GI50 is > 100 µM (inactive) in [6]; above 100 µM in assay [7]; > 100 µM (inactive) in [11]; > 100 µM (inactive) in [13]; > 100 µM (inactive) in assay [14]; > 100 µM (inactive) in [15]. The GI50 in assay [16] and in [17] was > 100 µM (inactive) each time.
As for `CC(=O)O[C@H]1C(=O)[C@@]2(C)[C@H]([C@H](OC(=O)c3ccccc3)[C@]3(O)C[C@H](OC(=O)[C@H](O)[C@@H](NC(=O)c4ccccc4)c4cccc(N(C)C)c4)C(C)=C1C3(C)C)[C@]1(OC(C)=O)CO[C@@H]1C[C@@H]2O`, the GI50 was 0.0322 µM (active) in assay [18]; 0.155 µM (active) in [1]; 0.302 µM (active) in [2]; 0.0755 µM (active) in [3]; 0.142 µM (active) in assay [4]; 0.575 µM (active) in [5]. In addition, the GI50 in [6] is 0.0219 µM (active); in [7], 1.79 µM; in assay [8], 0.665 µM (active); in assay [10], > 48.3 µM (inactive); in [11], 0.148 µM (active); in assay [12], 0.0276 µM (active). Also, the GI50 was 0.0419 µM (active) in assay [13], 0.157 µM (active) in assay [14], 0.254 µM (active) in [15] and > 32.1 µM (inactive) in assay [16].
With `COC(=O)c1c(C)cccc1C1CN=NC12Cc1cc(C)c(C)cc1C2=O` (stereo unspecified), the GI50 in assay [1] is 78.7 µM (inactive); in assay [2], > 100 µM (inactive); in assay [3], 29.9 µM (inactive); in assay [4] it was 48.5 µM (inactive); in [5], > 100 µM (inactive); in assay [6], 36.8 µM (inactive). Further, the GI50 in [7] was 30.5 µM; in [8], 47.9 µM (inactive); in [9], 57.8 µM (inactive); in [10] it was 73.1 µM (inactive); in assay [11], 44.5 µM (inactive); in [12], 96.4 µM (inactive). Also, the GI50 was 47.9 µM (inactive) in assay [13]; > 100 µM (inactive) in assay [14]; 69.5 µM (inactive) in assay [15]; 59.6 µM (inactive) in assay [16]; 52 µM (inactive) in [17].
For the molecule `CC(C)(C)OC(=O)/C=C/C(=O)O/C=C/[N+](=O)[O-]`, the GI50 in assay [18] was 18.2 µM (inactive); in [1], > 100 µM (inactive); in assay [2] it was > 100 µM (inactive); in assay [3], > 100 µM (inactive); in assay [4], > 100 µM (inactive); in assay [6], > 100 µM (inactive). In addition, the GI50 in assay [7] was above 100 µM; in assay [8], > 100 µM (inactive); in assay [10], > 100 µM (inactive); in assay [12], > 100 µM (inactive); in [13], > 100 µM (inactive); in assay [14], > 100 µM (inactive). Moreover, the GI50 in assay [15] and in assay [16] was > 100 µM (inactive) each time.
As for `Cn1/c(=N\N=C(\CNCCO)[C@@H](O)[C@@H]2OC(c3ccccc3)OC[C@H]2O)sc2ccccc21` (stereo partly specified), the GI50 in assay [18] was 19 µM (inactive); in [1], 19.2 µM (inactive); in [2] it was 18.5 µM (inactive); in assay [3], 20 µM (inactive); in assay [4], 18.7 µM (inactive); in assay [5], 17.3 µM (inactive). The GI50 in [6] is 18.6 µM (inactive); in assay [7] it was 25.5 µM; in assay [9], 17.7 µM (inactive); in assay [10], 15.6 µM (inactive); in assay [11] it was 12.8 µM (inactive); in [12] it was 14.8 µM (inactive). The GI50 in [13] was 21.5 µM (inactive); in [14] it was 18.2 µM (inactive); in assay [15], 16.9 µM (inactive); in assay [16], 15.4 µM (inactive); in assay [17] it was 23.9 µM (inactive).
As for `Cc1cn(C(=O)NC23CC4CC(CC(C4)C2)C3)c(=O)[nH]c1=O`, the GI50 is 32.7 µM (inactive) in [1]; > 100 µM (inactive) in assay [2]; 32.1 µM (inactive) in [3]; 36.5 µM (inactive) in assay [4]; 67.5 µM (inactive) in assay [5]; 33.8 µM (inactive) in [6]. The GI50 was 25.3 µM in assay [7]; 24.9 µM (inactive) in assay [8]; 44.7 µM (inactive) in [9]; 32.2 µM (inactive) in assay [10]; 71.1 µM (inactive) in assay [11]; 32.7 µM (inactive) in assay [12]. For the same molecule, the GI50 is 42.9 µM (inactive) in [13]; > 100 µM (inactive) in assay [14]; 21.8 µM (inactive) in assay [15]; 23.9 µM (inactive) in [16]; 38.7 µM (inactive) in assay [17].
As to `Cc1cc(C)nc(NC(P(=O)(O)O)P(=O)(O)O)n1`, the GI50 in assay [1] was > 100 µM (inactive); in [2], > 100 µM (inactive); in assay [3], > 100 µM (inactive); in [4] it was > 100 µM (inactive); in assay [6], > 100 µM (inactive); in assay [7] it was above 100 µM. Further, the GI50 in assay [8], in assay [9], in assay [10], in [11], in assay [12] and in assay [13] was > 100 µM (inactive) each time. In addition, the GI50 in [14], in assay [15] and in assay [16] was > 100 µM (inactive) throughout.
